{
  "source": "patent US9045403B2",
  "about": "(Coyote Pharmaceuticals, Inc., priority 2012, dated 2015)",
  "key": {"Neuro2A cells": {"system": "Neuro2A cells", "assay": "Neuro2A cells that extended neurites, with GGTI-298 (Example 18)", "format": "cell-based, mouse", "conditions": "0.1-1 μM, vehicle 0.0-0.20", "text": "After differentiation was induced, cells that extended neurites were counted."}, "rats, kainic acid model": {"system": "rats, kainic acid model", "assay": "Concentration dependence of neuroprotection in the kainic acid model", "format": "in vivo, rat", "conditions": "one dose at 0, 1, 3, 6, 12 or 24 mg/kg; fraction of cells damaged", "method": "The fraction of cells damaged in the kainic acid model was determined on 130 rats, each receiving one dose of CNS-102 at either 0, 1, 3, 6, 12 or 24 mg/kg. PBS was used for dosing at 0 mg/kg. The linear model of the log10 percent damage versus concentration is graphically shown FIG. 5."}, "[1]": {"system": "Sprague-Dawley rats injected with Kainic acid", "assay": "Kainic acid induced neurodegeneration and seizure in rats (Example 21)", "format": "in vivo, rat", "conditions": "oral", "text": "Seizure behaviors were observed and scored (Ref. R. J. Racine, Modification of seizure activity by electrical stimulation: II. Motor seizure, Electroencephalogr. Clin. Neurophysiol. 32 (1972) 281-294. Modifications were made for the methods). Brain tissues of rats were sectioned on histology slides, and neurons in hippocampus tissues were stained by Nissl. Neurons damaged by Kainic acid and behavior scores were quantified."}, "[2]": {"system": "Mouse Neuro2A neuroblastoma cells", "assay": "Neuro2A cells with neurites after GGTI-298 (Example 16)", "format": "cell-based", "conditions": "10 μM, 48 hrs", "method": "Mouse Neuro2A neuroblastoma cells were cultured in DMEM supplemented with 10% FBS for 24 hrs. […] Then differentiation was induced by retinoic acid in DMEM supplemented with 2% FBS. The cell culture was incubated with a Geranylgeranyl Transferase inhibitor, GGTI-298. […]"}, "[3]": {"conditions": "mouse, in vivo, po, 12 mg/kg", "description": "(§1) A total of 84 male mice (64 transgenic Sod1 mutant mice; 20 wild type mice) were included in the study. Dosing was administered daily beginning at postnatal day 38 (P38) via a single bolus oral gavage injection.\n(§2) Blood and serum samples from days P70 and P100 were collected on three animals from each of the six treatment groups. Hematology measures were white blood cell count, red blood cell count, hemoglobin, hematocrit, mean corpuscular volume, mean corpuscular hemoglobin, mean corpuscular hemoglobin concentration, and platelets. Chemistry values were alanine aminotransferase, aspartate aminotransferase, albumin, total protein, gamma globulin, blood urea nitrogen, cholesterol, and glucose."}, "[4]": {"assay": "Blood chemistry and hematology in Sod1 mutant and wild type mice", "conditions": "daily oral 12 mg/kg", "description": "as §1, §2"}},
  "data": [
    {"smiles": "CC(=O)CC/C=C(\\C)CC/C=C(\\C)CC/C=C(\\C)CCC=C(C)C", "note": "[CNS-102]", "values": [
      {"measurement": "Mean of cell numbers (Arbitrary units)", "setting": "Neuro2A cells", "value": "0.45-0.65 Arbitrary units"},
      {"measurement": "minimal effective dose", "setting": "rats, kainic acid model", "value": 12, "unit": "mg/kg"},
      {"measurement": "Mean of Hippocampus CA3 neurons damaged (Arbitrary units)", "setting": "[1]; 3 mg/Kg rat", "value": 10.25, "unit": "Arbitrary units"},
      {"measurement": "Mean of Hippocampus CA3 neurons damaged (Arbitrary units)", "setting": "[1]; 12 mg/Kg rat", "value": 10.16, "unit": "Arbitrary units"},
      {"measurement": "Mean of Hippocampus CA3 neurons damaged (Arbitrary units)", "setting": "[1]; 25 mg/Kg rat", "value": 1.97, "unit": "Arbitrary units"},
      {"measurement": "Mean of cell numbers (Arbitrary units)", "setting": "[2]", "value": 0.738, "unit": "Arbitrary units"},
      {"measurement": "ABSOLUTE BASOPHIL", "setting": "[3]", "value": 0, "unit": "per mm^3"},
      {"measurement": "BASOPHIL (%)", "setting": "[3]", "value": 0.0, "unit": "%"},
      {"measurement": "CALCIUM", "setting": "[3]", "value": 7.7, "unit": "mg/dL"},
      {"measurement": "CREATININE", "setting": "[3]", "value": "<1", "unit": "mg/dL"},
      {"measurement": "DIRECT BILIRUBIN", "setting": "[3]", "value": 0.0, "unit": "mg/dL"},
      {"measurement": "EOSINOPHIL (%)", "setting": "[3]", "value": 1.5, "unit": "%"},
      {"measurement": "HCT", "setting": "[3]", "value": 46.0, "unit": "%"},
      {"measurement": "INDIRECT BILIRUBIN", "setting": "[3]", "value": 0.0, "unit": "mg/dL"},
      {"measurement": "LYMPHOCYTE (%)", "setting": "[3]", "value": 84.0, "unit": "%"},
      {"measurement": "MONOCYTE (%)", "setting": "[3]", "value": 0.8, "unit": "%"},
      {"measurement": "NRBC (per 100 WBC)", "setting": "[3]", "value": 0.0, "unit": "per 100 WBC"},
      {"measurement": "PHOSPHORUS", "setting": "[3]", "value": 5.7, "unit": "mg/dL"},
      {"measurement": "PLATELET COUNT (Thousands)", "setting": "[3]", "value": 1128.6, "unit": "Thousands"},
      {"measurement": "RBC (Millions)", "setting": "[3]", "value": 8.8, "unit": "Millions"},
      {"measurement": "TOTAL BILIRUBIN", "setting": "[3]", "value": 0.0, "unit": "mg/dL"},
      {"measurement": "WBC (thousands)", "setting": "[3]", "value": 4.7, "unit": "thousands"},
      {"measurement": "blood and neurology examinations (in words)", "setting": "[3]", "value": "no abnormalities in blood and neurology examinations"},
      {"measurement": "cholesterol levels (in words)", "setting": "[4]", "value": "cholesterol levels were reduced"}
    ]}
  ]
}
